Reference: patent publication US10328164B2, “Radiopharmaceutical products” (GE HEALTHCARE LIMITED, priority 2006, dated 2019)

Conditions: tetrofosmin kit with ascorbic acid radioprotectant, without air addition step; post preparation
Description: The tetrofosmin kit may optionally comprise a radioprotectant, as defined above. […] Med. Comm., 21, 845-849 (2000)] and the Myoview™ Package Instructions.

With CCOCC[PH+](CCOCC)CC[PH+](CCOCC)CCOCC.CCOCC[PH+](CCOCC)CC[PH+](CCOCC)CCOCC.[O]=[99Tc]=[O] [^99mTc-tetrofosmin, ^99mTc(O)2(tetrofosmin)2^+] the post-reconstitution stability was “up to 12 hours”.
